Where no end group is shown, it is not given here.

Three substances from patent US6995140B1, “Peptides and polypeptides useful for regenerating the nervous system” (NUCLEICA, priority 1997, dated 2006) can be followed below.

The subject of one data set is spinal cord neurons. The experiment in a line: Cell cultures of spinal neurons. In kind it is cell-based, chicken. To be noted: compared with controls. As to the method:
Cell Cultures of Spinal Neurons
The spinal cords of 6-day old chicken embryos are dissected, freed of their meningeal membrane and cut into small pieces in a phosphate buffer (PBS) free of calcium and of magnesium. After incubation with 0.25% trypsin for 10 minutes at 37° C., the tissue is centrifuged at 200 g for 4 minutes in a growth medium containing 20% fetal calf serum in order to stop the trypsinization. The cells are then dissociated by repeated trituration using a Pasteur pipette and resuspended in a chemically defined medium free of serum as above.
The cells are plated at a density of 7.5×10^4 cells/cm^2 on 24-well plastic culture plates. The cultures are incubated at 37° C. and under air containing 10% CO2. The medium is not changed during the experiments and it has already been shown that this type of cell population contained more than 93% of neurons.

In another data set the test system is cortical neuronal cells. As to the kind of experiment: Dissociated cell cultures of cerebral hemispheres of 8-day old chicken embryos (cortical neurons). In kind it is cell-based. To be noted: for adherent cells carrying neurites relative to controls (controls 24.4%): 4 days of culture; for overall effect on cortical neuron cultures (aggregation, adhesion, neuritic growth): in comparison with peptide SEQ ID NO: 8. As to the method:
Dissociated Cell Cultures of Cerebral Hemispheres of 8-Day Old Chicken Embryos
The neuronal cultures are obtained from 8-day old chicken embryos. The cerebral hemispheres, after removing the meninges, are cut into small pieces and enzymatically dissociated with 0.25% of trypsin in a PBS saline buffer free of calcium and of magnesium for 15 minutes at 37° C.
The cells are centrifuged at 200 g for 5 minutes in DMEM medium with 20% FCS for the trypsin inactivation. The cells are then filtered on nylon membrane (pore size: 48 microns) and collected in a chemically defined medium free of serum containing a 1/1 mixture of DMEM and Ham's F12 medium supplemented with glutamine (4 mM), glucose (33 mM), penicillin G (50 U/ml), streptomycin sulfate (50 μg/ml) and an N2 supplement of Bottenstein and Sato (1979): putrescine (100 μM), sodium selenite (30 nM), human transferrin (50 μg/ml), progesterone (20 nM), insulin (5 μg/ml) and β-estradiol (1 pM). All the N2 supplements were bought from Sigma.
The cells are plated at a density of 7.5×10^4 cells/cm^2 on 24-well plastic plates. For some experiments, the plastic plates are coated either with fibronectin (24 μg/ml) or with thrombospondin (20 μg/ml). The cultures are incubated at 37° C. and under air containing 10% CO2. The medium is not changed during the experiment. These cultures consist of nearly 95% of neurons.
Moreover, the effect of the peptides according to the present invention SEQ ID NO: 8 and NO: 11 on cultures at low density was studied.

Data set [1] concerns NIB104 neuroblastoma cells. The experiment in a line: Culture of cells derived from the NIB104 neuroblastoma. The data set is classed as cell-based. As to the method: The cells derived from the NIB104 neuroblastoma were cultured in 24-well plastic plates previously coated with a film of poly-L-lysine, under conditions similar to those for the primary cultures.
A short description of data set [2]: Solubility of the peptide. The following applies: basic aqueous medium. In kind it is physicochemical.
Setting [3] is: low density culture, morphometric analysis.
Where [4] appears, read: morphometric analysis, plastic, versus control.
[5] abbreviates: plates coated with thrombospondin and fibronectin, compared with the controls.

With “WSGWSSCSRSCG (cysteine pairing not given here) [peptide SEQ ID NO: 8]”, in the data set on spinal cord neurons, the “neuritic growth and fasciculation of the neurites” value was “prominent neuritic growths forming a network without fasciculation of the neurites”; the “number of synaptic contacts between the neurites” value is “increase in the number of synaptic contacts”. In addition, the “distribution (aggregation) of the neurons” value in the data set on spinal cord neurons (in vitro) was “remain distributed for at least one week”. Moreover, the “morphology of the neuronal culture” value in the data set with cortical neuronal cells (after 5 days of culture, plastic substrate coated with the peptide) is “aggregate and are essentially connected by bundles of long and thick neurites”. Also, the “increase in the number of neuronal aggregates” value in the data set with cortical neuronal cells (between control culture and culture treated with the peptide) amounted to 9.3%. In the data set with cortical neuronal cells (low density culture), the “adherent cells carrying neurites relative to controls (controls 24.4%)” value came to 2 times. Further, in the data set with cortical neuronal cells (setting [3]), the “length of the neurites” value is on record as “significant increase” and the “number of neurites per cell” value is “significant increase”. In the data set on cortical neuronal cells (setting [4]), the “length of the neurites per aggregate” value is reported as “significant increase” and the “number of neurites per aggregate” value is recorded as “significant increase”. In the data set with cortical neuronal cells (setting [5]), the “length of the neurites per aggregate” value is listed as “significantly increased” and the “number of neurites per aggregate” value is listed as “significantly increased”. Also, in the data set with cortical neuronal cells (substrate coated with the peptide, 5 days of culture, versus control without peptide), the “adhesion of the cells to the substrate” value is given as “adhere well to the substrate”. For the same substance, the “appearance (phenotype) of the cells” value in data set [1] (in the presence of the peptide) is listed as “acquire a characteristic neuronal phenotype”. For the same substance, the neuritic growth entry in data set [1] (increasing concentrations of peptide in the culture medium, morphometric analysis) is recorded as “gradually increases”. In addition, the “number of NIB104 neuroblastoma cells” value in data set [1] (versus control cultures) is given as “considerably less numerous”. The solubility result in data set [2] is “soluble in basic aqueous medium”.

As to “R-K-A-R- (RKAR) [peptide SEQ ID NO: 13, peptide for comparison, reference compound]”, in the data set with cortical neuronal cells, the “overall effect on cortical neuron cultures (aggregation, adhesion, neuritic growth)” value was “no representative result”.

Consider “W-G-P-C-S-V-S-C-G- (WGPCSVSCG) [peptide SEQ ID NO: 11, second peptide according to the invention]”, for which, in the data set on cortical neuronal cells, the “overall effect on cortical neuron cultures (aggregation, adhesion, neuritic growth)” value was “lower but, nevertheless, significant results”. Moreover, the “adherent cells carrying neurites relative to controls (controls 24.4%)” value in the data set with cortical neuronal cells (low density culture) was 2.5 times. In addition, the “number of neurites per cell” value in the data set with cortical neuronal cells (setting [3]) is given as “not”.
